The values below come from ChEMBL document CHEMBL4152229, “Synthesis and biological evaluation of 2,6-disubstituted-9H-purine, 2,4-disubstitued-thieno[3,2-d]pyrimidine and -7H-pyrrolo[2,3-d]pyrimidine analogues as novel CHK1 inhibitors” (Eur J Med Chem, 2018).

In assay [1] the target is MAP kinase-activated protein kinase 2 (Homo sapiens) (UniProt P49137). Nature of the assay: Inhibition of DNA-tagged MAPKAPK2 (unknown origin) expressed in HEK293 cells at 10 uM after 1 hr by real-time fluorescent quantitative PCR analysis. Type of assay: cell-based.
Assay [2] addresses T1, Calcium/calmodulin-dependent protein kinase type IV (Homo sapiens) (UniProt Q16566).
T1 sequence (whole entry): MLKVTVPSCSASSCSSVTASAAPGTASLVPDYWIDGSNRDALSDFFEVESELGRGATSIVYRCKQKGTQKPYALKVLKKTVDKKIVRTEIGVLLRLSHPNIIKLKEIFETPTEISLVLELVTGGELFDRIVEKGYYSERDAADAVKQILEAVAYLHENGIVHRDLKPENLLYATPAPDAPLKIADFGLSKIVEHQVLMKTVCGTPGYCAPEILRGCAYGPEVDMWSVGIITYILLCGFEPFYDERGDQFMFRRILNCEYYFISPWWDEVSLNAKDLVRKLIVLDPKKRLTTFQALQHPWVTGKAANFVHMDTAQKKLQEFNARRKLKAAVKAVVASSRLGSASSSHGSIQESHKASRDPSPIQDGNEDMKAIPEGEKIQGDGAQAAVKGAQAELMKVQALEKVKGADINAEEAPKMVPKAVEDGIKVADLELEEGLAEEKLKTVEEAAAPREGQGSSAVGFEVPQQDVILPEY
Nature of the assay: Inhibition of DNA-tagged CAMK4 (unknown origin) expressed in HEK293 cells at 10 uM after 1 hr by real-time fluorescent quantitative PCR analysis. Type of assay: cell-based.

For assay [3], the target named is T2, Serine/threonine-protein kinase Chk1 (Homo sapiens) (UniProt O14757).
T2 sequence (whole entry): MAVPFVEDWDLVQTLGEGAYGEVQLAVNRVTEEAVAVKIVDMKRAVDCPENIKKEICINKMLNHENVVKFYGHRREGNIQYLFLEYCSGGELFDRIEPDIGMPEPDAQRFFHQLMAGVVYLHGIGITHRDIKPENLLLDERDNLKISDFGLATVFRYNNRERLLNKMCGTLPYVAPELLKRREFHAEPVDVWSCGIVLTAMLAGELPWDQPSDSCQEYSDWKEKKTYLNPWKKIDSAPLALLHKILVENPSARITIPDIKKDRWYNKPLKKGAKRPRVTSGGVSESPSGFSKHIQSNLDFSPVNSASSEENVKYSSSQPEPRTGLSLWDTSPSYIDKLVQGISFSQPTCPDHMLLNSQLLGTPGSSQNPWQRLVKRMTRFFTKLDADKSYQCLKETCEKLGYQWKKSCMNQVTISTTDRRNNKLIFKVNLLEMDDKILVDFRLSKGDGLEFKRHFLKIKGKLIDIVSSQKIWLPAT
The experiment in a line: Inhibition of CHK1 (unknown origin) at 10 uM using Cdc25 peptide as substrate preincubated for 30 mins followed by substrate addition and measured after 60 mins by ADP-Glo kinase assay. (In general: In ADP-Glo the light output rises with the ADP produced.)

Assay [4] concerns HT-29. Nature of the assay: Potentiation of gemcitabine-induced cell cycle arrest in human HT-29 cells assessed as accumulation at S phase at 10 uM after 48 hrs by propidium iodide/RNase staining-based flow cytometric analysis (reference value: 62.1%). The format is functional. For orientation: A flow cytometer gives signals particle by particle.
In assay [5] the test system is HT-29. The experiment in a line: Cell cycle arrest in human HT-29 cells assessed as accumulation at S phase at 10 uM after 48 hrs by propidium iodide/RNase staining-based flow cytometric analysis (reference value: 30.9%). The format is functional.
Assay [6] addresses T2, Serine/threonine-protein kinase Chk1 (Homo sapiens). The experiment in a line: Inhibition of DNA-tagged CHK1 (unknown origin) expressed in HEK293 cells at 10 uM after 1 hr by real-time fluorescent quantitative PCR analysis. Type of assay: cell-based.
Assay [7] deals with HT-29. The experiment in a line: Potentiation of gemcitabine-induced cell cycle arrest in human HT-29 cells assessed as accumulation at G2 phase at 10 uM after 48 hrs by propidium iodide/RNase staining-based flow cytometric analysis (reference value: 62.1%). The format is functional.
The target in assay [8] is Glycogen synthase kinase-3 beta (Homo sapiens) (UniProt P49841). Nature of the assay: Inhibition of DNA-tagged GSK3beta (unknown origin) expressed in HEK293 cells at 10 uM after 1 hr by real-time fluorescent quantitative PCR analysis. The format is cell-based.
Assay [9] addresses T3, Serine/threonine-protein kinase 3 (Homo sapiens) (UniProt Q13188).
T3 sequence (whole entry): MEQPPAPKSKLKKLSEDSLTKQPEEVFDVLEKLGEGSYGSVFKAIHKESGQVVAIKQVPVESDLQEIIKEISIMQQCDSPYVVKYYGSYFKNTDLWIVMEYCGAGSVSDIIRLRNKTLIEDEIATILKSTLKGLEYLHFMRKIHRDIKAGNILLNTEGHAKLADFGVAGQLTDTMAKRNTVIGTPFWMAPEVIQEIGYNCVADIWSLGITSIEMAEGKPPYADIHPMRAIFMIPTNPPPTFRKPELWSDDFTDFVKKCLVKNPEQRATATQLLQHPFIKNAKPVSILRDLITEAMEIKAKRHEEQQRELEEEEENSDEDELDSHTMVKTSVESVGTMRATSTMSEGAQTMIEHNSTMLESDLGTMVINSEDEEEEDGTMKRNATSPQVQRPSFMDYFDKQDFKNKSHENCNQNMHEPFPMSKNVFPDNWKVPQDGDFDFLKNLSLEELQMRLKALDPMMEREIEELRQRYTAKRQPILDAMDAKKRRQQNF
The experiment in a line: Inhibition of DNA-tagged STK3 (unknown origin) expressed in HEK293 cells at 10 uM after 1 hr by real-time fluorescent quantitative PCR analysis. The format is cell-based.

Broadly, the inhibition is the percentage by which the read-out fell short of the control.

Chain of MAP kinase-activated protein kinase 2 (Homo sapiens) (P49137 whole entry, looked up): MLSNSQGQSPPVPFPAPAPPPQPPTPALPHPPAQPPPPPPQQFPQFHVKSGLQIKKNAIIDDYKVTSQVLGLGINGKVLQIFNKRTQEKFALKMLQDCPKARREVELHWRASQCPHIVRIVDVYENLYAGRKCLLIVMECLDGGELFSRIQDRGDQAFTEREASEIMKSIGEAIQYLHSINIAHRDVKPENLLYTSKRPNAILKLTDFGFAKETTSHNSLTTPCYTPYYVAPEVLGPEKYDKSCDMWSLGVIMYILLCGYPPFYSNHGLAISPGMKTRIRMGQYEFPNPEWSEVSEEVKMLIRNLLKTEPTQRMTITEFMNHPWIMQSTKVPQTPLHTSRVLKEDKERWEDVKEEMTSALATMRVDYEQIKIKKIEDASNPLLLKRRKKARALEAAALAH
Chain of Glycogen synthase kinase-3 beta (Homo sapiens) (P49841 whole entry, looked up): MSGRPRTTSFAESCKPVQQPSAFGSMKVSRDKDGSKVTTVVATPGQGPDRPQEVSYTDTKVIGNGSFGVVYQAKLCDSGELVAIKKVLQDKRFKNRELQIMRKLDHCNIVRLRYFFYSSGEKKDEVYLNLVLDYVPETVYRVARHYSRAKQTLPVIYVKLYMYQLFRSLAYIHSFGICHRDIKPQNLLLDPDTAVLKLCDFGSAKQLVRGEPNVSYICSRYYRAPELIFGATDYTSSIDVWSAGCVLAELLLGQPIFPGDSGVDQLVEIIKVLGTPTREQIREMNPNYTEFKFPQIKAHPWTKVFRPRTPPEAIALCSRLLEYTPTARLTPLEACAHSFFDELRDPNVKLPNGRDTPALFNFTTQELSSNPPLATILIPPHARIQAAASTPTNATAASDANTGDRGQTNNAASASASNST

As to `Fc1ccc(Nc2nc(N3CCOCC3)c3nc[nH]c3n2)cc1`, the inhibition in assay [1] stood at 18%; in assay [2], 0%; in assay [3], 89.9%; in [6], 89.9%; in assay [8], 47%; in [9], 44%. Moreover, the Activity in the assay on HT-29 [4] stood at 61%; in the assay with HT-29 [5], 29.5%; in the assay with HT-29 [7], 25.2%.
